Data on four compounds can be found in patent US20230172924A1, “THERAPEUTIC AGENT FOR BREAST CANCER” (Eisai R&D Management Co., Ltd., priority 2020, published 2023).

Assay [1] concerns human breast cancer patient-derived tumor (OD-BRE-0438). In words: Antitumor effect of compound A and fulvestrant on OD-BRE-0438 patient-derived tumor subcutaneously transplanted in NOD-SCID mice. Type of assay: in vivo. Particulars: fulvestrant 250 mg/kg s.c. days 0 and 7, combination both; for Average tumor volume after starting drug administration, Day 0: Day 0, compound A 25 mg/kg oral once a day; for Average tumor volume after starting drug administration, Day 4: Day 4, compound A 25 mg/kg oral once a day; for Average tumor volume after starting drug administration, Day 7: Day 7, compound A 25 mg/kg oral once a day; for Average tumor volume after starting drug administration, Day 11: Day 11, compound A 25 mg/kg oral once a day; for Average tumor volume after starting drug administration, Day 14: Day 14, compound A 25 mg/kg oral once a day.

The subject of assay [2] is human-derived breast cancer cell line MCF-7-hCYP19A1. Nature of the assay: Cell number (CellTiter Glo 2.0 emission) of MCF-7-hCYP19A1 cells with Compound A and aromatase inhibitors. It counts as cell-based. Particulars: Compound A 1,000 nmol/L, 7 days culture with androstenedione, FGF2, FGF10, n=3.
For assay [3] the test system is unchanged. In words: Antitumor effect of compound A and letrozole on subcutaneously transplanted MCF-7-hCYP19A1 tumor in ovariectomized BALB/c nude mice. It counts as in vivo. Particulars: letrozole 0.01 mg/mouse, or both, oral once a day; for Average tumor volume after starting drug administration, Day 0: Day 0, compound A 25 mg/kg; for Average tumor volume after starting drug administration, Day 4: Day 4, compound A 25 mg/kg; for Average tumor volume after starting drug administration, Day 7: Day 7, compound A 25 mg/kg; for Average tumor volume after starting drug administration, Day 11: Day 11, compound A 25 mg/kg; for Average tumor volume after starting drug administration, Day 14: Day 14, compound A 25 mg/kg.

Where [4] appears, read: Table 3, letrozole 2,000 nmol/L or both.
Setting [5] is: Table 4, anastrozole 10,000 nmol/L or both.
Setting [6] is: Table 5, anastrozole 2,000 nmol/L or both.

Take `C[C@]12CC[C@@H]3c4ccc(O)cc4C[C@@H](CCCCCCCCC[S+]([O-])CCCC(F)(F)C(F)(F)F)[C@H]3[C@@H]1CC[C@@H]2O` (some centres unmarked) [Fulvestrant, fulvestrant]: in assay [1], the “Average tumor volume after starting drug administration, Day 0” value (“Average tumor volume … Day 0” below) is 148.7 mm^3; the “Average tumor volume after starting drug administration, Day 4” value (“Average tumor volume … Day 4” for short) is 172.2 mm^3; the “Average tumor volume after starting drug administration, Day 7” value (from here on “Average tumor volume … Day 7”) worked out at 208.2 mm^3; the “Average tumor volume after starting drug administration, Day 11” value (from here on “Average tumor volume … Day 11”) worked out at 207.4 mm^3. In assay [1], the “Average tumor volume after starting drug administration, Day 14” value (shortened to “Average tumor volume … Day 14”) is reported as 237.6 mm^3.
As to `N#Cc1ccc(C(c2ccc(C#N)cc2)n2cncn2)cc1` [Letrozole, letrozole], in assay [2] (setting [4]), the “Emission value (count per second)” value was 1,410,920 count per second. Also, in assay [3], the “Average tumor volume … Day 0” value amounted to 132.4 mm^3; the “Average tumor volume … Day 4” value came to 147.3 mm^3; the “Average tumor volume … Day 7” value worked out at 140.6 mm^3; the “Average tumor volume … Day 11” value turned out to be 159.6 mm^3. Also, the “Average tumor volume … Day 14” value in assay [3] is 162.0 mm^3.
With `CC(C)(C#N)c1cc(Cn2cncn2)cc(C(C)(C)C#N)c1` [Anastrozole, anastrozole], the “Emission value (count per second)” value in assay [2] (setting [5]) is on record as 1,443,072 count per second; in assay [2] (setting [6]), 1,357,941 count per second.
With `CNC(=O)n1ccc2cc(Oc3ccnc(NC(=O)c4ccc(C5CCN(CCO)CC5)cc4)c3)c(OCCOC)cc21` [Compound A, 5-((2-(4-(1-(2-Hydroxyethyl)piperidin-4-yl)benzamide)pyridin-4-yl)oxy)-6-(2-methoxyethoxy)-N-methyl-1H-indole-1-carboxamide], in assay [1], the “Average tumor volume … Day 0” value came to 148.6 mm^3; the “Average tumor volume … Day 4” value is 192.6 mm^3; the “Average tumor volume … Day 7” value is reported as 211.2 mm^3; the “Average tumor volume … Day 11” value came to 216.5 mm^3. The “Average tumor volume … Day 14” value in assay [1] is reported as 264.3 mm^3. Moreover, the “Emission value (count per second)” value in assay [2] (setting [4]) is on record as 1,242,509 count per second. The “Emission value (count per second)” value in assay [2] (setting [5]) is listed as 1,157,051 count per second. For the same compound, in assay [2] (setting [6]), the “Emission value (count per second)” value is reported as 1,157,051 count per second. Also, in assay [3], the “Average tumor volume … Day 0” value came to 130.7 mm^3; the “Average tumor volume … Day 4” value is on record as 155.5 mm^3; the “Average tumor volume … Day 7” value stood at 182.4 mm^3; the “Average tumor volume … Day 11” value worked out at 224.4 mm^3. In addition, the “Average tumor volume … Day 14” value in assay [3] came out at 267.5 mm^3.
